Laboratory results from patent US9120774B2 (University of Kansas, priority 2009, dated 2015).
Like-named read-outs stand apart in the source and are kept apart here.

Key:
Type in all cases: cell-based
[1] = test system: MM2 (metastatic mammary tumor cancer cells); assay: Anti-proliferation activity against MM2 cells (MTS/PMS)
Procedure: (§1) Cells were maintained in a 1:1 mixture of Advanced DMEM/F12 (Gibco) supplemented with non-essential amino acids, L-glutamine (2 mM), streptomycin (500 μg/mL), penicillin (100 units/mL), and 10% FBS. Cells were grown to confluence in a humidified atmosphere (37° C., 5% CO2), seeded (2000/well, 100 μL) in 96-well plates, and allowed to attach overnight. Compound or GDA at varying concentrations in DMSO (1% DMSO final concentration) was added, and cells were returned to the incubator for 72 hours. At 72 hours, the number of viable cells was determined using an MTS/PMS cell proliferation kit (Promega) per the manufacturer's instructions. Cells incubated in 1% DMSO were used at 100% proliferation, and values were adjusted accordingly. IC50 values were calculated from separate experiments performed in triplicate using GraphPad Prism.

[2] = test system: MCF-7 (estrogen receptor positive breast cancer cells); assay: Anti-proliferation activity against MCF-7 cells (MTS/PMS)
In short: (§2)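 Cells seeded at 2000/well, attached overnight, then exposed to compound at varying concentrations (1% DMSO final) for 72 hours at 37° C. Viable cells read by MTS/PMS, normalised to 1% DMSO as 100% proliferation. IC50 from separate triplicate experiments.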

[3] = test system: A549 (human alveolar basal epithelial cells); assay: Anti-proliferation activity against A549 cells (MTS/PMS)
Procedure: as §1

[4] = test system: SkBr3 (Her2 overexpressing breast cancer cells); assay: Anti-proliferation activity against SkBr3 cells (MTS/PMS)
In short: as §2

[5] = test system: LN3 (metastatic human prostate cancer cells); assay: Anti-proliferation activity against LN3 cells (MTS/PMS)
Procedure: as §1

[6] = test system: HCT-116 (colon cancer cells characterized by wild-type p53); assay: Anti-proliferation activity against HCT-116 cells; settings: Homo sapiens, Table 2, n = 3
[7] = test system: PL45 (pancreatic cancer cells); assay: Anti-proliferation activity against PL45 cells; settings: Table 2, n = 3
[8] = test system: LNCaP (androgen sensitive prostate cancer cells); assay: Anti-proliferation activity against LNCaP cells; settings: Homo sapiens, LNCaP; Table 2; n = 3; read-out: IC50 LNCaP
In short: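 Cells seeded at 2000/well in Advanced DMEM/F12 with 10% FBS and attached overnight, then given compound in 1% DMSO final for 72 h at 37 °C, 5% CO2. Viable cells by MTS/PMS read-out, normalised to 1% DMSO as 100% proliferation. IC50 from separate triplicate experiments.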

[9] = test system: PC-3 (androgen independent prostate cancer cells); assay: Anti-proliferation activity against PC-3 cells; settings: Homo sapiens, PC-3; Table 2; n = 3; read-out: IC50 PC-3
In short: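 Antiproliferative activity was tested in PC-3 androgen-independent prostate cancer cells. Cells grown at 37° C. with 5% CO2 in Advanced DMEM/F12 (1:1) containing non-essential amino acids, 2 mM L-glutamine, streptomycin, penicillin and 10% FBS were plated at 2000/well in 96-well plates. Proliferation was normalized to 1% DMSO controls, and IC50 values from triplicate experiments were fitted in GraphPad Prism.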

[10] = Table 12, aliphatic chain analogues, 72 hours
[11] = Homo sapiens, MCF7, Table 12, aliphatic chain analogues, 72 hours, read-out: IC50 MCF-7
[12] = Homo sapiens, A549, Table 12, aliphatic chain analogues, 72 hours
[13] = Homo sapiens, SK-BR-3, Table 12, aliphatic chain analogues, 72 hours, read-out: IC50 SKBr3
[14] = Homo sapiens, Table 12, aliphatic chain analogues, 72 hours
[15] = Table 20, indole-2-carboxamide analogues with noviose replacements
[16] = Homo sapiens, MCF7, Table 20, indole-2-carboxamide analogues with noviose replacements, read-out: IC50, MCF-7
[17] = Homo sapiens, A549, Table 20, indole-2-carboxamide analogues with noviose replacements
[18] = Homo sapiens, SK-BR-3, Table 20, indole-2-carboxamide analogues with noviose replacements, read-out: IC50, SKBr3
[19] = Homo sapiens, Table 20, indole-2-carboxamide analogues with noviose replacements
[20] = Table 13, various sugars on 8-methyl coumarin, 72 hours

SMILES | IC50 [1, 10] [µM] | IC50 [2, 11] [µM] | IC50 [3, 12] [µM] | IC50 [4, 13] [µM] | IC50 [5, 14] [µM] | IC50 [1, 15] [µM] | IC50 [2, 16] [µM] | IC50 [3, 17] [µM] | IC50 [4, 18] [µM] | IC50 [5, 19] [µM] | also measured
COc1cccc(-c2cc(C(=O)Nc3cc4cc(OC)c(OC5CCN(C)CC5)c(C)c4oc3=O)ccc2OC)c1 [KU-287] |  |  |  |  |  |  |  |  |  |  | IC50 ([1]; Table 10, azasugar analogues on 6-methoxy coumarin, 72 hours): 2.84 µM; IC50 ([2]; Homo sapiens, MCF7, Table 10, azasugar analogues on 6-methoxy coumarin, 72 hours, read-out: IC50 MCF-7): 1.79 ± 0.11 µM; IC50 ([3]; Homo sapiens, A549, Table 10, azasugar analogues on 6-methoxy coumarin, 72 hours): 1.99 µM; IC50 ([4]; Homo sapiens, SK-BR-3, Table 10, azasugar analogues on 6-methoxy coumarin, 72 hours, read-out: IC50 SKBr3): 1.19 ± 0.21 µM; IC50 ([5]; Homo sapiens, Table 10, azasugar analogues on 6-methoxy coumarin, 72 hours): 4.07 µM
COc1cccc(-c2cc(C(=O)Nc3cc4ccc(OCCN(C)C)c(OC)c4oc3=O)ccc2OC)c1 [KU-292] | 6.2 | 3.08 ± 0.12 | 8.8 | 1.77 ± 0.15 | 5.22 |  |  |  |  |  | 
COc1cccc(-c2cc(C(=O)Nc3cc4cc(OC)c(OCCN(C)C)c(C)c4oc3=O)ccc2OC)c1 [KU-294] | 4.87 | 1.29 ± 0.21 | 2.21 | 1.42 ± 0.26 | 4.71 |  |  |  |  |  | 
COc1cccc(-c2cc(C(=O)Nc3cc4ccc(OCCCN(C)C)c(C)c4oc3=O)ccc2OC)c1 [KU-317] | 12.8 | 0.5 ± 0.04 | 13.1 | 0.6 ± 0.01 | 37.5 |  |  |  |  |  | 
COc1cccc(-c2cc(C(=O)Nc3cc4ccc(OCCCN(C)C)c(OC)c4oc3=O)ccc2OC)c1 [KU-319] | 4.08 | 1.53 ± 0.18 | 3.43 | 0.91 ± 0.17 | 8.03 |  |  |  |  |  | 
CO[C@@H]1[C@@H](O)[C@@H](O)[C@H](Oc2ccc3cc(NC(=O)c4cccc(N)c4)c(=O)oc3c2C)OC1(C)C [compound 19, 3-Amino-N-(7-((2R,3R,4S,5R)-3,4-dihydroxy-5-methoxy-6,6-dimethyltetrahydro-2H-pyran-2-yloxy)-8-methyl-2-oxo-2H-chromen-3-yl)benzamide] |  |  |  |  |  |  |  |  |  |  | IC50 [1, 20]: 30.6 µM; IC50 [6]: 21.2 ± 2.2 µM; IC50 ([2]; Homo sapiens, MCF7, Table 2, n = 3, read-out: IC50 MCF-7): 30.1 ± 3.4 µM; IC50 ([2]; Table 13, various sugars on 8-methyl coumarin, 72 hours, read-out: IC50 MCF7): 37.2 ± 2.1 µM; IC50 [3, 20]: > 100 µM; IC50 [7]: 12.5 ± 0.9 µM; IC50 [8]: 24.8 ± 9.7 µM; IC50 [9]: 14.7 ± 2.6 µM; IC50 ([4]; Homo sapiens, SK-BR-3, Table 2, n = 3, read-out: IC50 SkBr3): 61.4 ± 4.7 µM; IC50 ([4]; Table 13, various sugars on 8-methyl coumarin, 72 hours, read-out: IC50 SKBr3): 12.5 ± 0.7 µM; IC50 [5, 20]: 3.65 µM

Now from value to compound, other results behind:

IC50 [1, 10] [µM] | IC50 [2, 11] [µM] | IC50 [3, 12] [µM] | IC50 [4, 13] [µM] | IC50 [5, 14] [µM] | IC50 [1, 15] [µM] | IC50 [2, 16] [µM] | IC50 [3, 17] [µM] | IC50 [4, 18] [µM] | IC50 [5, 19] [µM] | SMILES | also measured
 |  |  |  |  | 11.4 ± 6.56 | 0.57 ± 0.04 | 3.91 | 0.48 ± 0.11 | 11.8 ± 0.68 | Cc1c(OC2CCN(C)CC2)ccc2cc(NC(=O)c3cc4ccccc4[nH]3)c(=O)oc12 [KU-361] | 
 |  |  |  |  | 0.87 ± 0.57 | 0.52 ± 0.05 | 0.59 | 0.11 ± 0.01 | 1.47 ± 0.66 | COc1cc2cc(NC(=O)c3cc4ccccc4[nH]3)c(=O)oc2c(C)c1OC1CCN(C)CC1 [KU-363] | 
 |  |  |  |  | 42.8 | 0.69 ± 0.12 | > 100 | 0.15 ± 0.06 | 14.8 | COc1cc2cc(NC(=O)c3cc4ccccc4[nH]3)c(=O)oc2c(C)c1OC1CCCN(C)C1 (stereo not drawn) [KU-366] | 
